Experiments:
Trypanosoma cruzi [1] = assay: (§1) Trypanocidal activity against Trypanosoma cruzi Y strain bloodstream trypomastigotes isolated from infected in Albino Swiss mouse assessed as lysis of parasite in presence of 5 % mouse blood incubated for 24 hrs by Neubauer chamber method; assay type: functional, organism-based
Trypanosoma cruzi [2] = assay: as §1, with “Potency index, ratio of benznidazole IC50 to test compound IC50 for trypanocidal” for “Trypanocidal”; assay type: functional

Molecule `O=C1C=C(c2ccc(F)cc2)C(=O)c2ccccc21` has an IC50 (Trypanosoma cruzi [1]) greater than 500 µM.

`Cc1cc(C)cc(C2=CC(=O)c3c(O)cccc3C2=O)c1` gave an IC50 (Trypanosoma cruzi [1]) greater than 500 µM.

With `O=C1C=C(c2ccc(Cl)cc2)C(=O)c2ccccc21` the IC50 (Trypanosoma cruzi [1]) was greater than 1000 µM.

`O=C1C=C(c2ccccc2)C(=O)c2ccccc21` showed an IC50 (Trypanosoma cruzi [1]) of 96.8 µM.

`Cc1ccc(C2=CC(=O)c3ccccc3C2=O)c(O)c1` was tested, and the IC50 (Trypanosoma cruzi [1]) was 72.6 µM and the “Ratio IC50” value (Trypanosoma cruzi [2]) was 2.5.

In the case of `Cc1cccc(C2=CC(=O)c3ccccc3C2=O)c1`, the IC50 (Trypanosoma cruzi [1]) is reported as 105 µM.

For `Cc1ccc(C)c(C2=CC(=O)c3ccccc3C2=O)c1`, the IC50 (Trypanosoma cruzi [1]) was 56.5 µM and the “Ratio IC50” value (Trypanosoma cruzi [2]) was 2.

`O=C1C=C(c2ccccc2F)C(=O)c2ccccc21` showed an IC50 (Trypanosoma cruzi [1]) of 157 µM.

Work on `Cc1ccc(C2=CC(=O)c3ccccc3C2=O)cc1` yielded an IC50 (Trypanosoma cruzi [1]) of 185 µM.

For `O=C1C(c2ccccc2)=CC(=O)c2c(O)cccc21`, the IC50 (Trypanosoma cruzi [1]) was 115 µM.

Work on `COc1ccc(C2=CC(=O)c3ccccc3C2=O)cc1` yielded an IC50 (Trypanosoma cruzi [1]) of 303 µM.

`O=C1C(c2ccc(Cl)cc2)=CC(=O)c2c(O)cccc21` gave an IC50 (Trypanosoma cruzi [1]) greater than 1000 µM.

Molecule `O=C1C=C(c2ccc(C(F)(F)F)cc2)C(=O)c2ccccc21` has an IC50 (Trypanosoma cruzi [1]) of 335 µM.

Work on `Cc1cc(C)cc(C2=CC(=O)c3ccccc3C2=O)c1` yielded an IC50 (Trypanosoma cruzi [1]) greater than 500 µM.

With `Cc1ccc(C2=CC(=O)c3c(O)cccc3C2=O)cc1` the IC50 (Trypanosoma cruzi [1]) was 156 µM.

`Cc1ccc(O)c(C2=CC(=O)c3ccccc3C2=O)c1` was tested, and the IC50 (Trypanosoma cruzi [1]) was 99.2 µM.

For `O=C1C=C(c2ccc(I)cc2)C(=O)c2ccccc21`, the IC50 (Trypanosoma cruzi [1]) was greater than 500 µM.

In the case of `Cc1cccc(C2=CC(=O)c3c(O)cccc3C2=O)c1`, the IC50 (Trypanosoma cruzi [1]) is reported as 95.4 µM.

`O=C1C(c2ccc(C(F)(F)F)cc2)=CC(=O)c2c(O)cccc21` was tested, and the IC50 (Trypanosoma cruzi [1]) was 22.8 µM and the “Ratio IC50” value (Trypanosoma cruzi [2]) was 4.5.

For `CC(C)(C)c1ccc(C2=CC(=O)c3ccccc3C2=O)cc1`, the IC50 (Trypanosoma cruzi [1]) was 25.7 µM and the “Ratio IC50” value (Trypanosoma cruzi [2]) was 4.

For `O=C1C(c2cccc(I)c2)=CC(=O)c2c(O)cccc21`, the IC50 (Trypanosoma cruzi [1]) was 35.1 µM.

For `O=C1C(c2ccc(I)cc2)=CC(=O)c2c(O)cccc21`, the IC50 (Trypanosoma cruzi [1]) was greater than 500 µM.

`O=C1C(c2ccc(F)cc2)=CC(=O)c2c(O)cccc21` showed an IC50 (Trypanosoma cruzi [1]) of 71.5 µM.

Work on `O=C1C=C(c2cccc(I)c2)C(=O)c2ccccc21` yielded an IC50 (Trypanosoma cruzi [1]) of 304 µM.

In the case of `O=C1C=C(c2ccccc2O)C(=O)c2ccccc21`, the IC50 (Trypanosoma cruzi [1]) is reported as 163 µM.

— ChEMBL document CHEMBL4819141, “Ruthenium(II)- and Palladium(II)-catalyzed position-divergent CH oxygenations of arylated quinones: Identification of hydroxylated quinonoid compounds with potent trypanocidal activity” (Bioorg Med Chem, 2021)
